# Results as given in patent EP2323645B1, “USE OF LOW-DOSE LOCAL ANAESTHETIC OR DERIVATIVES THEREOF FOR THERAPY OF CHRONIC PAIN, ESPECIALLY MIGRAINE” (priority 2008, dated 2010).
# Test system: therapieresistenter chronischer Sensibilitätsstörungen an Armen und Händen mit Verlust der rohen Kraft
# Experiment: Treatment of therapy-resistant chronic sensory disturbances of arms and hands with loss of strength
# Assay type: in vivo, Patienten
structure (smiles),measurement,setting,value
CCN(CC)CC(=O)Nc1c(C)cccc1C [Lidocain],Remission der Kraftlosigkeit,"2 to 4 deep paravertebral injections, middle or lower cervical spine, 0,1 Gew.-%",Spontane Remission
same,Remission der Sensibilitätsstörungen,after further identical treatment sessions,vollständig nach zwei bis vier weiteren identisch reproduzierten Behandlungssitzungen
